Results taken from patent US6890951B2, “Treatment of addiction and addiction-related behavior” (Brookhaven Science Associates LLC, priority 1998, dated 2005).
Like-named read-outs stand apart in the source and are kept apart here.

Columns and labels:
[1] = tested on: synaptic DA ([11C]-raclopride binding, corpus striatum); assay: Primate PET: [11C]-raclopride DV ratio after cocaine challenge; format: in vivo, baboons (Papio anubis); details: Group 2: cocaine hydrochloride 0.5, 1.0 or 2.0 mg/kg, 5 or 30 minutes prior to second [11C]-raclopride injection
Protocol: Arterial blood samples were obtained throughout the study and selected plasma samples were analyzed for the presence of unchanged radio tracer carbon-11. Animals were not removed from the gantry between isotope injections. Regions of interest (ROI's) were drawn directly on the PET images. Briefly, the corpus striatum was outlined, bilaterally, on every transaxial slice upon which it appeared. The cerebellar ROI was drawn across the midline at the level of the cerebellar vermis. ROI's from the first study were then copied directly onto the corresponding slice from the second. By examining placement of the ROI's on the second scan changes could be made, if necessary, in ROI position only. This multi planar method of analysis reduced differences that may arise due to movement of the animal within the gantry during the scanning interval.
A graphical method for determining the distribution volume (DV) was developed previously for the kinetic analysis of the [^11C]-raclopride data. The DV ratio was the most reproducible measure of raclopride uptake. The ratio is the DV from a receptor-rich region (corpus striatum) to the DV of a non-receptor region (cerebellum). The free receptor concentration was directly proportional to the DV ratio of 1. […]

male Sprague-Dawley rats = format: in vivo
Description: In all rodent studies, male Sprague-Dawley rats were used (200-225 g, Taconic farms, Germantown, N.Y.). Animals were allowed to acclimate to the animal housing facility for at least 5 days prior to beginning the experiments. […] The conditioning procedure for the acquisition phase consisted of 12 sessions carried out consecutively over 12 days.
The animals in each group were randomly assigned to a 2×2 factorial design with one factor being the pairing chamber and the other factor being the order of conditioning. The animals that received either saline or cocaine were injected and confined to the appropriate compartment for 30 minutes.
[…] The amount of time spent in each chamber was recorded using an automated infrared beam electronically coupled to a timer.
In this example the procedure outlined in Section 2 of Materials and Methods was followed.

freely moving rats = assay: Cocaine-induced stereotypy after a sensitizing regimen of cocaine; format: in vivo
Protocol: The phenomenon of sensitization is observed with virtually all drugs of addiction. Sensitization is believed to play a role in the etiology of addiction.
Animals received 15 mg/kg i.p. of cocaine and stereotypy was determined in standard locomotor cages. For 6 consecutive days, animals received 15 mg/kg i.p. of cocaine once a day in their home cages. Eight days later, animals were rechallenged with 15 mg/kg i.p. of cocaine and stereotypy was determined. A five point rating scale was used to assess stereotypy and the rater was blind to the treatment received by each animal.

NAc DA = assay: Microdialysis: cocaine/heroin (speedball) induced increases in NAc DA; format: in vivo, rats; details: cocaine 20 mg/kg i.p. or heroin 0.5 mg/kg i.p. alone
Protocol: In vivo microdialysis studies were performed using adult male Sprague-Dawley rats (Taconic Farms) as detailed previously (Morgan and Dewey, 1998). Cocaine, a dopamine reuptake inhibitor, (n=6-8) was administered (i.p.) at a dose of 20 mg/kg while heroin, an indirect dopamine releaser, (n=6-8) was administered (i.p.) at a dose of 0.5 mg/kg. In studies designed to investigate the synergistic effects of a cocaine/heroin combination (n=6-8), both drugs were administered at the identical dose used in the single drug studies. Alone cocaine produced a marked elevation in extracellular DA of approximately 380% above baseline values, 60 minutes following administration. DA returned to baseline within 120 minutes. In contrast, heroin increased NAc DA by only 70%, 60 minutes following administration, returning to baseline within 140 minutes. However, when combined, the two drugs produced an increase in NAc DA of approximately 1000%, 180 minutes following administration that had not returned to baseline values by 200 minutes after reaching peak values (FIG. 9).

[2] = tested on: extracellular DA levels in the NACC; assay: Microdialysis: cocaine-induced increases in extracellular DA, earlier studies
[3] = acquisition, Saline/Cocaine pairing, cocaine 20 mg/kg (Table IV)
[4] = acquisition, Saline/Cocaine pairing, cocaine 20 mg/kg (Table V)
[5] = acquisition, Saline/Cocaine pairing, cocaine 20 mg/kg (Table VI)
[6] = expression, Saline/Cocaine pairings, saline on test day (Table IX)
[7] = expression, Saline/Cocaine pairings, saline on test day (Table VII)
[8] = expression, Saline/Cocaine pairings, saline on test day (Table VIII)
[9] = expression, Saline/Cocaine pairings, saline on test day (Table X)

COC(=O)[C@H]1[C@@H](OC(=O)c2ccccc2)C[C@@H]2CC[C@H]1N2C [Cocaine]
reduction in the mean DV ratio [1]: greater than 30%
Time spent in chambers, Unpaired (male Sprague-Dawley rats; acquisition, Saline/Cocaine pairing, cocaine 20 mg/kg (Table III)): 3.9 ± 0.4 min
Time spent in chambers, Paired (male Sprague-Dawley rats; acquisition, Saline/Cocaine pairing, cocaine 20 mg/kg (Table III, 75 mg/kg GVG experiment)): 11.1 ± 0.3^4 min
Time spent in chambers, Paired (male Sprague-Dawley rats; [3]): 11.8 ± 0.5^4 mins
Time spent in chambers, Unpaired (male Sprague-Dawley rats; [3]): 3.2 ± 0.5 min
Time spent in chambers, Paired (male Sprague-Dawley rats; [4]): 11.6 ± 0.5^4 min
Time spent in chambers, Unpaired (male Sprague-Dawley rats; [4]): 3.4 ± 0.4^5 min
Time spent in chambers, Paired (male Sprague-Dawley rats; [5]): 11.2 ± 0.6^4 mins
Time spent in chambers, Unpaired (male Sprague-Dawley rats; [5]): .8 ± 0.5^5 mins
Time spent in chambers, Paired (male Sprague-Dawley rats; cocaine 5.0 mg/kg i.p.): 8.2 ± 0.4 min
Time spent in chambers, Unpaired (male Sprague-Dawley rats; cocaine 5.0 mg/kg i.p.): 6.8 ± 0.5 min
Time spent in chambers, Paired (male Sprague-Dawley rats; cocaine 10.0 mg/kg i.p.): 9.6 ± 0.5^2 mins
Time spent in chambers, Unpaired (male Sprague-Dawley rats; cocaine 10.0 mg/kg i.p.): 5.4 ± 0.3 min
Time spent in chambers, Paired (male Sprague-Dawley rats; cocaine 20.0 mg/kg i.p.): 11.8 ± 0.4^3 mins
Time spent in chambers, Unpaired (male Sprague-Dawley rats; cocaine 20.0 mg/kg i.p.): 3.2 ± 0.4^4 mins
Time spent in chambers, Paired (male Sprague-Dawley rats; [6]): 11.1 ± 0.5^3 min
Time spent in chambers, Unpaired (male Sprague-Dawley rats; [6]): 3.9 ± 0.4^4 min
Time spent in chambers, Paired (male Sprague-Dawley rats; [7]): 11.8 ± 0.5^3 min
Time spent in chambers, Unpaired (male Sprague-Dawley rats; [7]): 3.2 ± 0.5 min
Time spent in chambers, Paired (male Sprague-Dawley rats; [8]): 12.2 ± 0.6^3 min
Time spent in chambers, Unpaired (male Sprague-Dawley rats; [8]): 2.8 ± 0.5 min
Time spent in chambers, Paired (male Sprague-Dawley rats; [9]): 12.5 ± 0.8^3 min
Time spent in chambers, Unpaired (male Sprague-Dawley rats; [9]): 2.5 ± 0.6^4 min
Stereotypies on Day 15 (freely moving rats; cocaine 15 mg/kg i.p. rechallenge after sensitizing regimen, 1 ml/kg i.p. 0.9% NaCl before): 4.1 ± 0.5
Stereotypy score on Day 1 (freely moving rats; cocaine 15 mg/kg i.p., group later given 0.9% NaCl, five point rating scale): 2.5 ± 0.4
time for DA to return to baseline (NAc DA): ≤ 120 min
increase of NACC DA levels (rank order) [2]: 450%
